According to PubChem BioAssay AID2060902 (Molecular Pharmacology Branch, DTP, NCI, 2025):

Tested on: 485368-065-R3-J5-PDC spheroids with HUVEC/MSC, viability
Experiment: Anticancer human tumor 485368-065-R3-J5-PDC patient-derived pancreatic carcinoma cell line growth inhibition [RAS]
Settings: for IC50: curve of first compound; for viability, T/C: stronger effect = lower value
Outline: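 Multi-cell-type spheroids: tumor cells plus HUVEC endothelial cells and mesenchymal stem cells. RAS-pathway inhibitors were combined with targeted agents, each dosed in half-log steps down from clinical Cmax, or from 10 microM when Cmax was unknown.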

[1] = second compound 0.000949 µM, first compound 0.0316 µM
[2] = second compound 0.000949 µM, first compound 0.1 µM
[3] = second compound 0.000949 µM, first compound 0.316 µM
[4] = second compound 0.000949 µM, first compound 1 µM
[5] = second compound 0.003 µM, first compound 0.0316 µM
[6] = second compound 0.003 µM, first compound 0.1 µM
[7] = second compound 0.003 µM, first compound 0.316 µM
[8] = second compound 0.003 µM, first compound 1 µM
[9] = second compound 0.00949 µM, first compound 0.0316 µM
[10] = second compound 0.00949 µM, first compound 0.1 µM
[11] = second compound 0.00949 µM, first compound 0.316 µM
[12] = second compound 0.00949 µM, first compound 1 µM
[13] = second compound 0.03 µM, first compound 0.0316 µM
[14] = second compound 0.03 µM, first compound 0.1 µM
[15] = second compound 0.03 µM, first compound 0.316 µM
[16] = second compound 0.03 µM, first compound 1 µM
[17] = second compound 0.0949 µM, first compound 0.0316 µM
[18] = second compound 0.0949 µM, first compound 0.1 µM
[19] = second compound 0.0949 µM, first compound 0.316 µM
[20] = second compound 0.0949 µM, first compound 1 µM
[21] = second compound 0.3 µM, first compound 0.0316 µM
[22] = second compound 0.3 µM, first compound 0.1 µM
[23] = second compound 0.3 µM, first compound 0.316 µM
[24] = second compound 0.3 µM, first compound 1 µM
[25] = second compound 0.000949 µM, first compound 3.16 µM
[26] = second compound 0.000949 µM, first compound 10 µM
[27] = second compound 0.003 µM, first compound 3.16 µM
[28] = second compound 0.003 µM, first compound 10 µM
[29] = second compound 0.00949 µM, first compound 3.16 µM
[30] = second compound 0.00949 µM, first compound 10 µM
[31] = second compound 0.03 µM, first compound 3.16 µM
[32] = second compound 0.03 µM, first compound 10 µM
[33] = second compound 0.0949 µM, first compound 3.16 µM
[34] = second compound 0.0949 µM, first compound 10 µM
[35] = second compound 0.3 µM, first compound 3.16 µM
[36] = second compound 0.3 µM, first compound 10 µM
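Further: spheroids exposed to agents for seven days before readout.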

## CCN1CCN(Cc2ccc(Nc3ncc(F)c(-c4cc(F)c5nc(C)n(C(C)C)c5c4)n3)nc2)CC1 + CCn1c(-c2cccnc2C(C)OC)c2c3cc(ccc31)N1CCOC(CC(NC(=O)C(C(C)C)N(C)C(=O)C3(F)CCN(C(=O)C#CC(C)(C)N(C)C)CC3)C(=O)N3CCCC(N3)C(=O)OCC(C)(C)C2)C1
Second compound 0.000949 µM
  IC50: > 1 µM
Second compound 0.003 µM
  IC50: 0.639 µM
Second compound 0.00949 µM
  IC50: 0.941 µM
Second compound 0.03 µM
  IC50: 0.693 µM
Second compound 0.0949 µM
  IC50: 0.888 µM
Second compound 0.3 µM
  IC50: > 1 µM
Second compound 0.000949 µM, first compound 0.00316 µM
  viability, T/C: 103%
Second compound 0.000949 µM, first compound 0.01 µM
  viability, T/C: 88.8%
[1]
  viability, T/C: 103%
[2]
  viability, T/C: 77.9%
[3]
  viability, T/C: 63.5%
[4]
  viability, T/C: 51.5%
Second compound 0.003 µM, first compound 0.00316 µM
  viability, T/C: 98.4%
Second compound 0.003 µM, first compound 0.01 µM
  viability, T/C: 91.5%
[5]
  viability, T/C: 96.4%
[6]
  viability, T/C: 77.3%
[7]
  viability, T/C: 58.2%
[8]
  viability, T/C: 45%
Second compound 0.00949 µM, first compound 0.00316 µM
  viability, T/C: 96.8%
Second compound 0.00949 µM, first compound 0.01 µM
  viability, T/C: 100%
[9]
  viability, T/C: 91.3%
[10]
  viability, T/C: 84.7%
[11]
  viability, T/C: 60.9%
[12]
  viability, T/C: 49.6%
Second compound 0.03 µM, first compound 0.00316 µM
  viability, T/C: 96.8%
Second compound 0.03 µM, first compound 0.01 µM
  viability, T/C: 100%
[13]
  viability, T/C: 95.4%
[14]
  viability, T/C: 82.6%
[15]
  viability, T/C: 70.5%
[16]
  viability, T/C: 40.7%
Second compound 0.0949 µM, first compound 0.00316 µM
  viability, T/C: 96.8%
Second compound 0.0949 µM, first compound 0.01 µM
  viability, T/C: 95.1%
[17]
  viability, T/C: 96.1%
[18]
  viability, T/C: 83.4%
[19]
  viability, T/C: 66.3%
[20]
  viability, T/C: 48%
Second compound 0.3 µM, first compound 0.00316 µM
  viability, T/C: 96.8%
Second compound 0.3 µM, first compound 0.01 µM
  viability, T/C: 104%
[21]
  viability, T/C: 89.3%
[22]
  viability, T/C: 88.8%
[23]
  viability, T/C: 63.7%
[24]
  viability, T/C: 55.8%

## C[C@@H](NC(=O)c1ncnc(N)c1Cl)c1ncc(C(=O)Nc2cc(C(F)(F)F)c(Cl)cn2)s1 + CCn1c(-c2cccnc2C(C)OC)c2c3cc(ccc31)N1CCOC(CC(NC(=O)C(C(C)C)N(C)C(=O)C3(F)CCN(C(=O)C#CC(C)(C)N(C)C)CC3)C(=O)N3CCCC(N3)C(=O)OCC(C)(C)C2)C1
Second compound 0.000949 µM
  IC50: > 10 µM
Second compound 0.003 µM
  IC50: > 10 µM
Second compound 0.00949 µM
  IC50: > 10 µM
Second compound 0.03 µM
  IC50: > 10 µM
Second compound 0.0949 µM
  IC50: > 10 µM
Second compound 0.3 µM
  IC50: > 10 µM
[1]
  viability, T/C: 107%
[2]
  viability, T/C: 102%
[3]
  viability, T/C: 106%
[4]
  viability, T/C: 93.6%
[25]
  viability, T/C: 92.6%
[26]
  viability, T/C: 86.4%
[5]
  viability, T/C: 102%
[6]
  viability, T/C: 107%
[7]
  viability, T/C: 102%
[8]
  viability, T/C: 94.6%
[27]
  viability, T/C: 106%
[28]
  viability, T/C: 80.3%
[9]
  viability, T/C: 102%
[10]
  viability, T/C: 110%
[11]
  viability, T/C: 103%
[12]
  viability, T/C: 105%
[29]
  viability, T/C: 96.5%
[30]
  viability, T/C: 89%
[13]
  viability, T/C: 102%
[14]
  viability, T/C: 120%
[15]
  viability, T/C: 106%
[16]
  viability, T/C: 105%
[31]
  viability, T/C: 107%
[32]
  viability, T/C: 94.6%
[17]
  viability, T/C: 102%
[18]
  viability, T/C: 111%
[19]
  viability, T/C: 105%
[20]
  viability, T/C: 96.5%
[33]
  viability, T/C: 104%
[34]
  viability, T/C: 76.1%
[21]
  viability, T/C: 97.5%
[22]
  viability, T/C: 118%
[23]
  viability, T/C: 111%
[24]
  viability, T/C: 108%
[35]
  viability, T/C: 106%
[36]
  viability, T/C: 79.2%

## Cc1nc(N2CCC3(CC2)COC(C)C3N)c(CO)nc1Sc1ccnc(N)c1Cl (stereo unspecified) + CCn1c(-c2cccnc2C(C)OC)c2c3cc(ccc31)N1CCOC(CC(NC(=O)C(C(C)C)N(C)C(=O)C3(F)CCN(C(=O)C#CC(C)(C)N(C)C)CC3)C(=O)N3CCCC(N3)C(=O)OCC(C)(C)C2)C1
Second compound 0.000949 µM
  IC50: > 10 µM
Second compound 0.003 µM
  IC50: > 10 µM
Second compound 0.00949 µM
  IC50: > 10 µM
Second compound 0.03 µM
  IC50: > 10 µM
Second compound 0.0949 µM
  IC50: > 10 µM
Second compound 0.3 µM
  IC50: > 10 µM
[1]
  viability, T/C: 94.1%
[2]
  viability, T/C: 108%
[3]
  viability, T/C: 86.1%
[4]
  viability, T/C: 79.1%
[25]
  viability, T/C: 78.1%
[26]
  viability, T/C: 70.2%
[5]
  viability, T/C: 95.8%
[6]
  viability, T/C: 98%
[7]
  viability, T/C: 95.4%
[8]
  viability, T/C: 84.8%
[27]
  viability, T/C: 80.3%
[28]
  viability, T/C: 79.5%
[9]
  viability, T/C: 90%
[10]
  viability, T/C: 99.6%
[11]
  viability, T/C: 97.9%
[12]
  viability, T/C: 96.2%
[29]
  viability, T/C: 80.4%
[30]
  viability, T/C: 72.7%
[13]
  viability, T/C: 104%
[14]
  viability, T/C: 96.9%
[15]
  viability, T/C: 85.3%
[16]
  viability, T/C: 103%
[31]
  viability, T/C: 83.9%
[32]
  viability, T/C: 61.7%
[17]
  viability, T/C: 90.5%
[18]
  viability, T/C: 92.8%
[19]
  viability, T/C: 84.2%
[20]
  viability, T/C: 95.1%
[33]
  viability, T/C: 83.9%
[34]
  viability, T/C: 74.2%
[21]
  viability, T/C: 110%
[22]
  viability, T/C: 94.6%
[23]
  viability, T/C: 83.2%
[24]
  viability, T/C: 87.2%
[35]
  viability, T/C: 85.5%
[36]
  viability, T/C: 63.3%
